The results in this text go back to patent publication US11999739B2, “Antimicrobials methods of making and using the same” (BIOVERSYS AG, priority 2016, dated 2024).

One data set concerns A. baumannii. The data set is described as follows: CLSI broth microdilution MIC, A. baumannii. The class given is cell-based. On the procedure: (§1) Four compounds, including Compound Nos. 120 and 162 of the present application (RX-04B and RX-04C, respectively) were tested against (i) multiresistant Enterobacteriaceae and Acinetobacter with carbapenemases; (ii) Enterobacteriaceae with MCR-1; and (iii) P. aeruginosa with altered efflux (see Tables 4 and 5). In this case, MCR-1 is relevant because its activity reduces the negative charge of lipopolysaccharides, potentially affecting binding of poly-basic molecules such as the compounds tested herein, as well as polymyxins.
(§2) MICs of the four tested compounds and comparators (amikacin, cefepime, colistin, meropenem and tigecyline) were determined by CLSI broth microdilution using pre-prepared plates (Trek Diagnostic Systems) (CLSI Approved Standard M7-A10). Carbapenemase and mcr-1 genes were detected by PCR or sequencing. Efflux levels in P. aeruginosa isolates were inferred by interpretive reading of antibiogram data.
A general note: In broth dilution the organism is exposed to a series of concentrations in liquid medium.

For another data set, the system named is CPE. The data set is described as follows: CLSI broth microdilution MIC, carbapenemase-producing Enterobacteriaceae (CPE). Type of data set: cell-based. The settings on record: 35/36 (97%) of CPE, FIG. 2. The method, then:
as §1, §2

A further data set relates to MCR-1 isolates. The data set is described as follows: CLSI broth microdilution MIC, Enterobacteriaceae with MCR-1. The settings on record: all MCR-1 isolates (n=14), FIG. 3. Type of data set: cell-based. On the procedure: as §1, §2
The test system of the next data set is P. aeruginosa. Kind of data set: CLSI broth microdilution MIC, P. aeruginosa with altered efflux. Type of data set: cell-based. The method, then: as §1, §2
Data set [1] concerns E. coli DH10B mcr-1 transformant. Kind of data set: CLSI broth microdilution MIC, E. coli DH10B mcr-1 transformant. Type of data set: cell-based. On the procedure:
as §2

In another data set the test system is Enterobacteriaceae. The data set is described as follows: CLSI broth microdilution MIC, multiresistant Enterobacteriaceae panel. The class given is cell-based. To be noted: for MIC, peak of unimodal distribution: 68 Enterobacteriaceae, FIG. 1. The method, then:
as §1, §2

For the next data set, the system named is E. coli DH10B. Kind of data set: CLSI broth microdilution MIC, E. coli DH10B recipient. Type of data set: cell-based. The method, then: as §2
Data set [2] deals with Staphylococcus aureus (S. aureus) 11540 strain. Kind of data set: Standard microdilution MIC assay, S. aureus. The class given is cell-based. Put shortly: (§3)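 MICs obtained by CLSI-standard microdilution, quality-controlled with reference strains in parallel. Values reported as + or − relative to a 16 micrograms/mL cutoff.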
The nature of data set [3]: Rat five day safety study (bodyweight gain, reticulocyte count change). Type of data set: in vivo. The settings on record: male Sprague-Dawley juvenile rats, n=5, once daily slow intravenous infusion for 5 days at or near maximum-tolerated dose; for BW Result: bodyweight gain; for Hematology Result: reticulocyte count change. The method, then:
The compounds of the present disclosure were tested for safety in a multi-day dosing study in rat. Key parameters that were monitored are bodyweight gain and hematological changes, particularly changes in reticulocyte counts. Male Sprague-Dawley (CD) juvenile rats were received from Charles River with double jugular vein catheters. For each compound, n=5. […] Bodyweights were recorded daily for the first 5 days (during the dosing period), then 2 to 3 times per week thereafter. Blood was collected via a jugular vein catheter into EDTA anti-coagulated tubes for complete blood counts (CBC) on Days 0 (baseline), 3 and 7. On Day 22, blood was drawn via a cardiac puncture into EDTA coated tubes for final CBC, and serum separator tubes for the complete clinical chemistry profile. The blood that was collected into serum separator tubes was allowed to clot at room temperature for approximately 30 minutes, spun in a centrifuge at 2000 rpm, and the resulting serum was aliquoted. All samples were sent on wet ice to Charles River Labs for analysis.

Data set [4] has as its system Escherichia coli strain ATCC25922. The data set is described as follows: Standard microdilution MIC assay, E. coli. Type of data set: cell-based. Put shortly:
as §3

Where [5] appears, read: Escherichia coli, read-out: MIC.
Where [6] appears, read: Pseudomonas aeruginosa, almost half (48%) of the MICs, FIG. 5, read-out: MIC.

≈ marks a conversion by molar mass, not a printed value. Read-outs that look alike come from different tables or passages of the source.

Regarding `C[C@H](N)CCCc1cc(OC(F)(F)F)c(F)c(-c2cc3cn(-c4ccc([C@@H]5CCC[C@@H](CCNC(=N)N)N5)cc4)c(=O)nc3[nH]2)c1` [RX-04A], the MIC in the data set with A. baumannii (Acinetobacter baumannii, 7/10 values, read-out: MIC) was 1 to 2 µg/mL (≈ 1.56 to 3.11 µM); with A. baumannii (MICs mostly (summary)), 1 to 2 µg/mL; in the data set with P. aeruginosa (MICs mostly (summary)), 1 to 4 µg/mL; with P. aeruginosa (Pseudomonas aeruginosa, 19/20 (95%) isolates, read-out: MIC), 1 to 4 µg/mL (≈ 1.56 to 6.22 µM); in data set [1] (Escherichia coli) it was 0.25 µg/mL (≈ 0.389 µM); in the data set with Enterobacteriaceae (67/68 (>98%) MICs), 0.25 to 2 µg/mL (≈ 0.389 to 3.11 µM). Also, the figures for the MIC in the data set with Enterobacteriaceae (MICs mostly (summary)) and with E. coli DH10B (setting [5]) were 1 to 2 µg/mL (≈ 1.56 to 3.11 µM) and 0.25 µg/mL (≈ 0.389 µM), respectively. Besides, the “MIC relative to the MIC for E. coli ATCC 25922” value with CPE is on record as not above 4 fold; against MCR-1 isolates, not above 2 fold. The “MIC change in isolates with elevated efflux” value in the data set with P. aeruginosa (P. aeruginosa isolates with elevated efflux) was “not raised”. Further, the “MIC, peak of unimodal distribution” value against Enterobacteriaceae worked out at 1 µg/mL.
With `N=C(N)NCC[C@@H]1CCC[C@@H](c2ccc(-n3cc4cc(-c5cc(CCC[C@@H](N)CO)cc(Cl)c5F)[nH]c4nc3=O)cc2F)N1` [RX-04C], the MIC in the data set on P. aeruginosa (setting [6]) was not below 16 µg/mL; in [1] (Escherichia coli), 0.5 µg/mL (≈ 0.797 µM); in the data set on E. coli DH10B (setting [5]), 0.5 µg/mL (≈ 0.797 µM). Moreover, the “MIC, peak of unimodal distribution” value against Enterobacteriaceae was 2 µg/mL.
Regarding `CSc1cc(-n2cc3cc(-c4cc(CCC[C@@H](N)C5CC5)cc(Cl)c4F)[nH]c3nc2=O)ccc1[C@@H]1CCC[C@@H](CCNC(=N)N)N1` [RX-04B], the MIC (in data set [1] (Escherichia coli); in the data set with E. coli DH10B (setting [5])) was 0.5 µg/mL (≈ 0.752 µM) in each case. The “MIC, peak of unimodal distribution” value in the data set with Enterobacteriaceae was 1 µg/mL.
In the case of `CC(=N)NCC[C@@H]1CCC[C@@H](c2ccc(-n3cc4cc(-c5cc(CCC[C@@H](N)C6CC6)cc(C(F)(F)F)c5F)[nH]c4nc3=O)cn2)N1` [Compound 249], the MIC in [2] and in data set [4] was not above 16 µg/mL in each case. Moreover, in data set [3], the “BW Result” value is on record as “+ (a “+” in “BW result” indicates that the rat exhibited a weight gain of 20% or more)”. Further, the “Hematology Result” value in data set [3] was “+ (a “+” in “Hematology result” indicates indicates that the rat exhibited a reticulocyte count change of 65% or less)”.
In [2], `COC[C@H](N)CCCc1cc(OC(F)(F)F)c(F)c(-c2cc3cn(-c4ccc([C@@H]5CCC[C@@H](CCNC(C)=N)N5)c(F)c4)c(=O)nc3[nH]2)c1` [Compound 196] registered an MIC not above 16 µg/mL. In data set [3], the “BW Result” value is recorded as “+ (a “+” in “BW result” indicates that the rat exhibited a weight gain of 20% or more)” and the “Hematology Result” value is listed as “+ (a “+” in “Hematology result” indicates indicates that the rat exhibited a reticulocyte count change of 65% or less)”. This compound yielded an MIC in [4] not above 16 µg/mL.
As to `C=C[C@@H](N)CCCc1cc(Cl)c(F)c(-c2cc3cn(-c4ccc([C@@H]5CCC[C@@H](CCNC(C)=N)N5)cc4)c(=O)nc3[nH]2)c1` [Compound 36], the MIC in data set [2] and in data set [4] was not above 16 µg/mL each time. Moreover, in data set [3], the “Hematology Result” value is “− (a “−” indicates indicates that the rat exhibited a reticulocyte count change of greater than 65%)”.
Take `CSc1cc(-n2cc3cc(-c4cc(CCC[C@@H](N)C5CC5)cc(Cl)c4F)[nH]c3nc2=O)ccc1[C@@H]1CCC[C@@H](CCNC(C)=N)N1` [Compound 120]: the minimal inhibitory concentration (MIC) in data set [2] was not above 16 µg/mL. For the same compound, in data set [3], the “BW Result” value is “+ (a “+” in “BW result” indicates that the rat exhibited a weight gain of 20% or more)” and the “Hematology Result” value is given as “+ (a “+” in “Hematology result” indicates indicates that the rat exhibited a reticulocyte count change of 65% or less)”. In [4], this compound registered an MIC not above 16 µg/mL.
Take colistin [reference compound]: the minimal inhibitory concentration (MIC) in [1] (MCR-1 Transformant) was 4 µg/mL; against E. coli DH10B, 0.25 µg/mL.
In turn, `CC(=N)NCC[C@@H]1CCC[C@@H](c2ccc(-n3cc4cc(-c5cc(CCC[C@@H](N)C6CC6)cc(Cl)c5F)[nH]c4nc3=O)cc2)N1C` [Compound 123] showed an MIC in data set [2] not above 16 µg/mL. Besides, in data set [3], the “BW Result” value was “+ (a “+” in “BW result” indicates that the rat exhibited a weight gain of 20% or more)” and the “Hematology Result” value was “+ (a “+” in “Hematology result” indicates indicates that the rat exhibited a reticulocyte count change of 65% or less)”. Also, the MIC in [4] is not above 16 µg/mL.
Regarding `CC(=N)NCC[C@@H]1CCC[C@@H](c2ccc(-n3cc4cc(-c5cc(CCC[C@H](C)N)cc(Cl)c5F)[nH]c4nc3=O)cc2)N1CCCO` [Compound 290], the MIC in [2] and in data set [4] was not above 16 µg/mL each time. Besides, in data set [3], the “BW Result” value was “+ (a “+” in “BW result” indicates that the rat exhibited a weight gain of 20% or more)”. Also, in data set [3], the “Hematology Result” value is recorded as “+ (a “+” in “Hematology result” indicates indicates that the rat exhibited a reticulocyte count change of 65% or less)”.
For the compound `COC[C@H](N)CCCc1cc(-c2cc3cn(-c4ccc([C@@H]5CCC[C@@H](CCNC(C)=N)N5)c(SC)c4)c(=O)nc3[nH]2)c(F)c(C(F)(F)F)c1` [Compound 199], the MIC in data set [2] and in data set [4] was not above 16 µg/mL each time. Further, the “BW Result” value in data set [3] is reported as “+ (a “+” in “BW result” indicates that the rat exhibited a weight gain of 20% or more)”. Moreover, the “Hematology Result” value in data set [3] is given as “− (a “−” indicates indicates that the rat exhibited a reticulocyte count change of greater than 65%)”.
On to `C[C@H](N)CCCc1cc(Cl)c(F)c(-c2cc3cn(-c4ccc([C@@H]5CCC[C@@H](CCNC(=N)CN)N5)cc4)c(=O)nc3[nH]2)c1` [RX-04D], for which the “relative activity among analogues” value in the data set on A. baumannii (10 A. baumannii, FIG. 4) is “least active analogue”. The MIC was not below 16 µg/mL in the data set with P. aeruginosa (setting [6]), 1 µg/mL (≈ 1.65 µM) in data set [1] (Escherichia coli) and 1 µg/mL (≈ 1.65 µM) with E. coli DH10B (setting [5]). For the same compound, in the data set on Enterobacteriaceae, the “MIC, peak of unimodal distribution” value worked out at 2 µg/mL.
In [2], `COC[C@H](N)CCCc1cc(-c2cc3cn(-c4ccc([C@@H]5CCC[C@@H](CCNC(C)=N)N5)c(F)c4)c(=O)nc3[nH]2)c(F)c(C(F)(F)F)c1` [Compound 191] displayed an MIC not above 16 µg/mL. In data set [3], the “BW Result” value is on record as “+ (a “+” in “BW result” indicates that the rat exhibited a weight gain of 20% or more)” and the “Hematology Result” value is recorded as “+ (a “+” in “Hematology result” indicates indicates that the rat exhibited a reticulocyte count change of 65% or less)”. Further, in data set [4], the MIC was not above 16 µg/mL.

The term MIC denotes the lowest concentration that inhibits growth of the organism.
